Here are results for one compound from patent publication US20260240832A1, “USE OF NITROXOLINE COMPOUND IN ENHANCING EFFECT OF ANTIBACTERIAL AGENT” (Jiangsu Yahong Meditech Co., Ltd., priority 2022, published 2026).

Read-outs that look alike come from different tables or passages of the source.

Usually MIC stands for the lowest concentration found to suppress growth.

This test concerns carbapenem-resistant Acinetobacter baumannii. The test is described as follows: Chessboard microbroth dilution MIC/FIC, compound A in combination with meropenem. In kind it is cell-based. As to conditions: for MIC: Acinetobacter baumannii, read-out: Meropenem MIC alone; for Meropenem MIC in combination: with compound A. The text has this:
This experiment is designed to determine the minimum inhibitory concentration (MIC) of compound A in combination with meropenem against carbapenem-resistant Acinetobacter baumannii and to calculate the fractional inhibitory concentration (FIC) index.
Test bacteria: 10 strains of carbapenem-resistant Acinetobacter baumannii are clinically isolated strains, and are provided by Shanghai Junji Medical Laboratory Co., Ltd.
According to the recommendation of the Clinical and Laboratory Standards Institute (CLSI), the microbroth dilution method designed by the chessboard method was used to determine the minimum inhibitory concentration (MIC) of compound A in combination with meropenem against the above strains, and the fractional inhibitory concentration (FIC) index was calculated.
Compound A was dissolved in dimethyl sulfoxide to obtain a stock solution I with a concentration of 51200 mg/L. The stock solution I was subjected to 1:1 gradient dilution with dimethyl sulfoxide to obtain a dilution solution with a concentration range of 51200 to 25 mg/L. The corresponding concentrations were added to sterile water for 100-fold dilution to obtain working solution I with a concentration range of 512 to 0.25 mg/L.
Meropenem was dissolved in sterile water to obtain a stock solution with a concentration of 5120 mg/L. The […] stock solution was subjected to 1:1 gradient dilution with sterile water to obtain a working solution II with a concentration range of 512 to 0.25 mg/L.
According to the method in Example 1, a drug sensitive plate was prepared with working solution I and working solution II, and the specific process will not be repeated here.
(2) The culture medium of the bacterial solution: Cation-Adjusted Mueller-Hinton Broth (CAMHB), a product of BBL, USA, batch number 9015952.
(3) Formulation method of bacterial solution: According to the direct colony suspension method, the test bacteria cultured overnight were prepared into a 0.5 McFarland turbidity tube using physiological saline. Then, the resulting solution was dilute 100 times with the above culture medium. 100 μL of the resulting bacterial solution was mixed well with the solution (100 μL) in each well of the drug sensitivity plate, and the final inoculation amount was 10^5 CFU/mL.
(4) Culture conditions: Culturing at 35±2° C. for 20 hours in air.
(1) The experimental results were determined according to the standard of CLSI 2020 M100 30th edition.
wherein: FIC≤0.5 indicates synergistic effect; 0.5<FIC≤1.0 indicates additive effect; 1<FIC≤2.0 indicates irrelevant effect; and FIC>2 indicates antagonistic effect.

In the case of `C[C@@H](O)[C@H]1C(=O)N2C(C(=O)O)=C(S[C@@H]3CN[C@H](C(=O)N(C)C)C3)[C@H](C)[C@H]12` [Meropenem, reference compound], the MIC by setting is: (strain No. 1) 128 µg/mL; (strain No. 2) 128 µg/mL; (strain No. 3) 128 µg/mL; (strain No. 4) 128 µg/mL; (strain No. 5) 128 µg/mL; (strain No. 6) 128 µg/mL. Further, the MIC is, setting by setting: (strain No. 7) 64 µg/mL; (strain No. 8) 64 µg/mL; (strain No. 9) 64 µg/mL; (strain No. 10) 128 µg/mL. The “Meropenem MIC in combination” value was 16 mg/L (strain No. 1); 16 mg/L (strain No. 2); 16 mg/L (strain No. 3); 16 mg/L (strain No. 4); 16 mg/L (strain No. 5); 16 mg/L (strain No. 6). Also, the “Meropenem MIC in combination” value by setting is: (strain No. 7) 16 mg/L; (strain No. 8) 8 mg/L; (strain No. 9) 8 mg/L; (strain No. 10) 16 mg/L.
